# Source: the NIST ThermoML archive (doi:10.1021/je900730w)
# Numbers after ± are expanded uncertainties.
# Assays:
# [1] = refractive index (Na D-line) (dimensionless); conditions: 293.15 K; 101.33 kPa; Liquid; Standard Abbe refractometry
# [2] = for mass density: 293.15 K, 101.33 kPa, Liquid
# [3] = Molar enthalpy of transition or fusion; conditions: Crystal; DSC
Structure (SMILES),refractive index [1],Molar enthalpy of transition or fusion [3],"Normal melting temperature ([2]; Crystal, DTA)",mass density [2],mass density ([2]; Vibrating tube method)
CCOCCO [2-ethoxyethan-1-ol],1.4065 ± 0.0007,–,–,–,929 ± 1 kg/m3
"O=P(c1ccccc1)(c1ccccc1)c1cc(O)ccc1O [(2,5-dihydroxyphenyl)diphenyl phosphine oxide]",–,8.91 ± 0.239 kcal/mol,214.60 ± 0.5 °C,–,–
CC(C)=O [acetone],1.359 ± 0.0007,–,–,–,790 ± 1 kg/m3
Cc1ccccc1 [toluene],1.4967 ± 0.0007,–,–,–,866 ± 1 kg/m3

# The next lines start with results.
refractive index [1],Molar enthalpy of transition or fusion [3],"Normal melting temperature ([2]; Crystal, DTA)",mass density [2],Structure (SMILES),mass density ([2]; Vibrating tube method)
1.366 ± 0.0007,–,–,–,CCO [ethanol],790 ± 1 kg/m3
1.3301 ± 0.0007,–,–,792 ± 1 kg/m3,CO [methanol],–
